Measurements as given in US20200247800A1, “SUBSTITUTED BICYCLIC HETEROCYCLIC COMPOUNDS AS NADPH OXIDASE INHIBITORS” (Glenmark Pharmaceuticals S.A., priority 2017, published 2020).

Target: T1, human NOX4 (Homo sapiens, UniProt Q9NPH5)
T1 construct: expressed in transfected cells; membrane fraction used
T1 sequence (Q9NPH5 1-578): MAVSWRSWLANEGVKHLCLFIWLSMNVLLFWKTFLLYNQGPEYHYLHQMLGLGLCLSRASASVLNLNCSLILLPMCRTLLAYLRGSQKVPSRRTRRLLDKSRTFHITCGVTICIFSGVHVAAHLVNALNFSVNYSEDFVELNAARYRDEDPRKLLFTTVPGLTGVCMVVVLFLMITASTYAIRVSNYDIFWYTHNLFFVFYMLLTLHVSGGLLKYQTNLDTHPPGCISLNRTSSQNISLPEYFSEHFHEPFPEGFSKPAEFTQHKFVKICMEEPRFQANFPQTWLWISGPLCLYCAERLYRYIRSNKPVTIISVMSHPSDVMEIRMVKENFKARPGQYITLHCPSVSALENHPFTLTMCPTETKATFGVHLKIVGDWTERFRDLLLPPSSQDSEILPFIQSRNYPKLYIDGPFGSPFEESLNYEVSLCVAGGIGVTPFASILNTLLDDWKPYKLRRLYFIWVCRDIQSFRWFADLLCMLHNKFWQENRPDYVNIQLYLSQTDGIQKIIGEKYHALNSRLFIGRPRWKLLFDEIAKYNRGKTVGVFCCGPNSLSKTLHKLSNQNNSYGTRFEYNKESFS
T1 sequence (P13498 1-195 partner): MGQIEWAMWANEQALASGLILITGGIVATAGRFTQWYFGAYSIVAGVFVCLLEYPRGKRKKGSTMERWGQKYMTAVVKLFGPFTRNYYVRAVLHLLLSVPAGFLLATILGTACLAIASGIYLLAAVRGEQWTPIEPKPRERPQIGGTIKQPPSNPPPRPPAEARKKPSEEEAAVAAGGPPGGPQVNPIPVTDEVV
Assay: Cell free membrane based in vitro NOX4 assay: H2O2 production by membranes expressing human NOX4, measured with Amplex Red
Type: biochemical
Conditions: for inhibition at 1 µM: 1.0 μM compound, read-out: Percentage inhibition at 1.0 μM; for inhibition at 10 µM: 10.0 μM compound, read-out: Percentage inhibition at 10.0 μM; for IC50: class symbols
Method: The inhibition of NOX4 activity was measured as inhibition of formation of reactive oxygen species (ROS) from oxygen in cell free assays. […] A cell free membrane based in vitro assay was developed by preparing membranes from cells stably overexpressing human NOX4. hNOX4/HEK stable cell line was generated in-house for this purpose. Membranes from stably transfected cells overexpressing human NOX4 were prepared by homogenizing the cells in buffer (20 mM HEPES, 1 mM EGTA, 0.5 mM DTT, 0.5% protease inhibitor cocktail, 1 mM PMSF, pH 7.6), followed by centrifugation at 160000 g for 30 min. Membrane fraction (pellet) was resuspended in storage buffer (homogenization buffer with 10% glycerol and 100 mM NaCl) and stored at −80° C. Protein concentration was determined by Bradford reagent. H202 production by membranes expressing human NOX4 was measured using Amplex Red (Invitrogen) by following a slightly modified version of the manufacturer's instruction manual. Briefly, membranes were incubated in assay buffer (25 mM HEPES, 0.12 M NaCl, 3 mM KCl, 1 mM MgCl2, pH 7.4) with Horse Radish Peroxidase (HRP) and Amplex Red. Reaction was started by addition of […] to the membrane mix. Antagonism of NOX4 inhibitors was measured by incubating the membrane with increasing concentrations of the inhibitors for 20 min on a plate shaker prior to addition of NADPH. H2O2 levels were measured for 10 min in a BMG Fluostar microplate reader with excitation and emission wavelengths of 544 nm and 590 nm respectively. Concentration response curves were plotted as a % of maximal response obtained in the absence of the inhibitor. IC50 value was calculated from concentration response curve by nonlinear regression analysis using GraphPad PRISM software.

| Structure (SMILES) | inhibition at 1 µM [%] | inhibition at 10 µM [%] | IC50 [µM] |
| --- | --- | --- | --- |
| Cc1nn(C)c2[nH]c(-c3ccccc3Cl)c(O)c(=O)c12 [Example 1, 6-(2-Chlorophenyl)-5-hydroxy-1,3-dimethyl-1,7-dihydro-4H-pyrazolo[3,4-b]pyridin-4-one] | 94.1 | 89.7 | < 0.05 |
| Cc1nn(CCN2CCOCC2)c2[nH]c(-c3ccccc3Cl)c(O)c(=O)c12 [Example 2, 6-(2-Chlorophenyl)-5-hydroxy-3-methyl-1-(2-morpholinoethyl)-1H-pyrazolo[3,4-b]pyridin-4(7H)-one] | 83.5 | 81.5 | 0.1 to 0.15 |
| Cn1ncc2c(=O)c(O)c(-c3ccccc3Cl)[nH]c21 [Example 3, 6-(2-Chlorophenyl)-5-hydroxy-1-methyl-1,7-dihydro-4H-pyrazolo[3,4-b]pyridin-4-one] | 93.7 | 100 | 0.1 to 0.15 |
| Cn1ncc2c(=O)c(O)c(-c3cccc(Cl)c3)[nH]c21 [Example 4, 6-(3-Chlorophenyl)-5-hydroxy-1-methyl-1,7-dihydro-4H-pyrazolo[3,4-b]pyridin-4-one] | 94.5 | 98.5 | > 0.15 |
| Cn1ncc2c(=O)c(O)c(-c3ccc(Cl)cc3Cl)[nH]c21 [Example 5, 6-(2,4-Dichlorophenyl)-5-hydroxy-1-methyl-1,7-dihydro-4H-pyrazolo[3,4-b]pyridin-4-one] | 74 | 84.2 | > 0.15 |
| Cn1ncc2c(=O)c(O)c(-c3ccc(F)c(C(F)(F)F)c3)[nH]c21 [Example 6, 6-[4-Fluoro-3-(trifluoromethyl)phenyl]-5-hydroxy-1-methyl-1,7-dihydro-4H-pyrazolo[3,4-b]pyridin-4-one] | 96.3 | 94.3 | 0.1 to 0.15 |
| Cn1ncc2c(=O)c(O)c(-c3c(F)cccc3Cl)[nH]c21 [Example 7, 6-(2-Chloro-6-fluorophenyl)-5-hydroxy-1-methyl-1,7-dihydro-4H-pyrazolo[3,4-b]pyridin-4-one] | 100 | 100 | 0.05 to 0.1 |
| O=c1c(O)c(-c2ccccc2Cl)[nH]c2c1cnn2CC(F)(F)F [Example 8, 6-(2-Chlorophenyl)-5-hydroxy-1-(2,2,2-trifluoroethyl)-1,7-dihydro-4H-pyrazolo[3,4-b]pyridin-4-one] | 87.5 | 100 | 0.05 to 0.1 |
| O=c1c(O)c(-c2c(F)cccc2F)[nH]c2c1cnn2-c1ccc(F)cc1 [Example 9, 6-(2,6-Difluorophenyl)-1-(4-fluorophenyl)-5-hydroxy-1,7-dihydro-4H-pyrazolo[3,4-b]pyridin-4-one] | 81.7 | 97.4 | > 0.15 |
| O=c1c(O)c(-c2ccccc2Cl)[nH]c2c1cnn2-c1ccc(F)cc1 [Example 10, 6-(2-Chlorophenyl)-1-(4-fluorophenyl)-5-hydroxy-1,7-dihydro-4H-pyrazolo[3,4-b]pyridin-4-one] | 100 | 100 | < 0.05 |
| Cc1nn(C)c2[nH]c(-c3ccc(Cl)cc3Cl)c(O)c(=O)c12 [Example 11, 6-(2,4-Dichlorophenyl)-5-hydroxy-1,3-dimethyl-1,7-dihydro-4H-pyrazolo[3,4-b]pyridin-4-one] | 76.6 | 76.5 | 0.1 to 0.15 |
| Cc1nn(C)c2[nH]c(-c3ccc(F)cc3Cl)c(O)c(=O)c12 [Example 12, 6-(2-Chloro-4-fluorophenyl)-5-hydroxy-1,3-dimethyl-1,7-dihydro-4H-pyrazolo[3,4-b]pyridin-4-one] | 95 | 86 | 0.05 to 0.1 |
| Cc1nn(C)c2[nH]c(-c3c(F)cccc3F)c(O)c(=O)c12 [Example 13, 6-(2,6-Difluorophenyl)-5-hydroxy-1,3-dimethyl-1,7-dihydro-4H-pyrazolo[3,4-b]pyridin-4-one] | 99.6 | 98.7 | < 0.05 |
| Cc1nn(C)c2[nH]c(-c3ccc(F)cc3F)c(O)c(=O)c12 [Example 14, 6-(2,4-Difluorophenyl)-5-hydroxy-1,3-dimethyl-1,7-dihydro-4H-pyrazolo[3,4-b]pyridin-4-one] | 100 | 82.5 | 0.05 to 0.1 |
| Cc1ccc(-c2[nH]c3c(c(C)nn3C)c(=O)c2O)cc1C [Example 15, 6-(3,4-Dimethylphenyl)-5-hydroxy-1,3-dimethyl-1,7-dihydro-4H-pyrazolo[3,4-b]pyridin-4-one] | 50.1 |  |  |
| Cc1nn(C)c2[nH]c(-c3ccc(OC(F)(F)F)c(F)c3)c(O)c(=O)c12 [Example 16, 6-[3-Fluoro-4-(trifluoromethoxy)phenyl]-5-hydroxy-1,3-dimethyl-1,7-dihydro-4H-pyrazolo[3,4-b]pyridin-4-one] | 99.7 |  | > 0.15 |
| Cc1nn(C)c2[nH]c(-c3ccc(F)c(F)c3)c(O)c(=O)c12 [Example 17, 6-(3,4-Difluorophenyl)-5-hydroxy-1,3-dimethyl-1,7-dihydro-4H-pyrazolo[3,4-b]pyridin-4-one] | 63.9 |  |  |
| COc1ccc(-c2[nH]c3c(c(C)nn3C)c(=O)c2O)c(Cl)c1 [Example 18, 6-(2-Chloro-4-methoxyphenyl)-5-hydroxy-1,3-dimethyl-1,7-dihydro-4H-pyrazolo[3,4-b]pyridin-4-one] | 78.6 | 78.4 | 0.1 to 0.15 |
| COc1ccc(-c2[nH]c3c(c(C)nn3C)c(=O)c2O)c(F)c1 [Example 19, 6-(2-Fluoro-4-methoxyphenyl)-5-hydroxy-1,3-dimethyl-1,7-dihydro-4H-pyrazolo[3,4-b]pyridin-4-one] | 95.3 | 75.2 | 0.05 to 0.1 |
| Cc1nn(C)c2[nH]c(-c3cc(Cl)ccc3Cl)c(O)c(=O)c12 [Example 20, 6-(2,5-Dichlorophenyl)-5-hydroxy-1,3-dimethyl-1,7-dihydro-4H-pyrazolo[3,4-b]pyridin-4-one] | 95.9 | 96.1 | < 0.05 |
| Cc1nn(C)c2[nH]c(-c3ccc(C(F)(F)F)cc3F)c(O)c(=O)c12 [Example 21, 6-[2-Fluoro-4-(trifluoromethyl)phenyl]-5-hydroxy-1,3-dimethyl-1,7-dihydro-4H-pyrazolo[3,4-b]pyridin-4-one] | 100 | 100 | > 0.15 |
| Cc1nn(C)c2[nH]c(-c3ccc(C(F)(F)F)c(F)c3)c(O)c(=O)c12 [Example 22, 6-[3-Fluoro-4-(trifluoromethyl)phenyl]-5-hydroxy-1,3-dimethyl-1,7-dihydro-4H-pyrazolo[3,4-b]pyridin-4-one] | 100 | 80.9 | > 0.15 |
| COc1ccc(Cl)c(-c2[nH]c3c(c(C)nn3C)c(=O)c2O)c1 [Example 23, 6-(2-Chloro-5-methoxyphenyl)-5-hydroxy-1,3-dimethyl-1,7-dihydro-4H-pyrazolo[3,4-b]pyridin-4-one] | 100 | 99.3 | 0.05 to 0.1 |
| Cc1nn(C)c2[nH]c(-c3ccc(Cl)c(C(F)(F)F)c3)c(O)c(=O)c12 [Example 24, 6-[3-Chloro-3-(trifluoromethyl)phenyl]-5-hydroxy-1,3-dimethyl-1,7-dihydro-4H-pyrazolo[3,4-b]pyridin-4-one] | 88.9 |  | > 0.15 |
| Cc1nn(C)c2[nH]c(-c3ccc(Cl)cc3F)c(O)c(=O)c12 [Example 25, 6-(4-Chloro-2-fluorophenyl)-5-hydroxy-1,3-dimethyl-1,7-dihydro-4H-pyrazolo[3,4-b]pyridin-4-one] | 90.7 | 78.3 |  |
